From ChEMBL document CHEMBL6109137, “Design, Synthesis, Evaluation, and SAR of 5-Phenylisoindoline Derivatives, a Potent Class of Small-Molecule Inhibitors Targeting the Programmed Cell Death-1/Programmed Cell Death-Ligand 1 (PD-1/PD-L1) Interaction” (J Med Chem, 2025)
Active and inactive are the calls of the source. The rule behind the calls is not given here.

Assays:
[1] = Toxicity in C57BL/6J mouse implanted with mouse MC38 cells assessed as change in RBC count at 40 to 160 mg/kg, IG qd for 7 days; assay type: organism-based; settings: in vivo, po, 168 h, dose 40-160 mg/kg, time 7 day
[2] = Toxicity in C57BL/6J mouse implanted with mouse MC38 cells assessed as drug tolerance at 5 to 20 mg/kg, ip qd for 13 days; assay type: organism-based; settings: in vivo, 312 h, dose 5-20 mg/kg, time 13 day
[3] = Toxicity in C57BL/6J mouse implanted with mouse MC38 cells assessed as change in spleen index at 5 to 20 mg/kg, ip qd for 13 days; assay type: organism-based; settings: in vivo, 312 h, dose 5-20 mg/kg, time 13 day
[4] = Toxicity in C57BL/6J mouse implanted with mouse MC38 cells assessed as lung weight ratio at 40 to 160 mg/kg, IG qd for 7 days; assay type: organism-based; settings: in vivo, po, 168 h, dose 40-160 mg/kg, time 7 day
[5] = Toxicity in C57BL/6J mouse implanted with mouse MC38 cells assessed as change in CREA-SOX level at 40 to 160 mg/kg, IG qd for 7 days; assay type: organism-based; settings: in vivo, po, 168 h, dose 40-160 mg/kg, time 7 day
[6] = Toxicity in C57BL/6J mouse implanted with mouse MC38 cells assessed as change in heart index at 5 to 20 mg/kg, ip qd for 13 days; assay type: organism-based; settings: in vivo, 312 h, dose 5-20 mg/kg, time 13 day
[7] = test system: MC-38; assay: Antitumor activity against mouse MC38 cells implanted in C57BL/6J mouse at 5 to 20 mg/kg, ip qd for 13 days relative to control; assay type: functional; settings: dose 5-20 mg/kg, time 13 day
[8] = Clearance in Sprague-Dawley rat at 20 mg/kg, po measured for 24 hrs by LC-MS/MS analysis; assay type: ADME, organism-based; settings: in vivo
[9] = Clearance in Sprague-Dawley rat at 1 mg/kg, iv measured for 24 hrs by LC-MS/MS analysis; assay type: ADME, organism-based; settings: in vivo
[10] = test system: MC-38; assay: Inhibition of cell proliferation of mouse MC38 cells implanted in C57BL/6J mouse assessed as reduction in Ki67 level at 5 to 20 mg/kg, ip qd for 13 days by IHC analysis; assay type: functional, organism-based; settings: dose 5-20 mg/kg, time 13.0 day
[11] = Toxicity in C57BL/6J mouse implanted with mouse MC38 cells assessed as spleen weight ratio at 40 to 160 mg/kg, IG qd for 7 days; assay type: organism-based; settings: in vivo, po, 168 h, dose 40-160 mg/kg, time 7 day
[12] = Toxicity in C57BL/6J mouse implanted with mouse MC38 cells assessed as change in MPV count at 40 to 160 mg/kg, IG qd for 7 days; assay type: organism-based; settings: in vivo, po, 168 h, dose 40-160 mg/kg, time 7 day
[13] = molecular target: Programmed cell death protein 1/Programmed cell death 1 ligand 1 (Homo sapiens, UniProt Q9NZQ7); assay: Inhibition of interaction of PD-1/PD-L1 (unknown origin) by HTRF analysis; assay type: protein-complex assay
Chain of Programmed cell death protein 1/Programmed cell death 1 ligand 1 (Q15116 whole entry): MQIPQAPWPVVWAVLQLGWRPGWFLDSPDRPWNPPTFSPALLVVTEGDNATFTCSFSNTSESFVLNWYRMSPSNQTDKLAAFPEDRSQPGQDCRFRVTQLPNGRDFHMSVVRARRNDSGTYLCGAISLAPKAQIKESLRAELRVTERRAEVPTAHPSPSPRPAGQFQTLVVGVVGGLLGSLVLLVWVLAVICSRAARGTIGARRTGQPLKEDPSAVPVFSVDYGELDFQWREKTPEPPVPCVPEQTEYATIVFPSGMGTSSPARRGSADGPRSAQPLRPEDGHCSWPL
Chain of Programmed cell death protein 1/Programmed cell death 1 ligand 1 (Q9NZQ7 whole entry): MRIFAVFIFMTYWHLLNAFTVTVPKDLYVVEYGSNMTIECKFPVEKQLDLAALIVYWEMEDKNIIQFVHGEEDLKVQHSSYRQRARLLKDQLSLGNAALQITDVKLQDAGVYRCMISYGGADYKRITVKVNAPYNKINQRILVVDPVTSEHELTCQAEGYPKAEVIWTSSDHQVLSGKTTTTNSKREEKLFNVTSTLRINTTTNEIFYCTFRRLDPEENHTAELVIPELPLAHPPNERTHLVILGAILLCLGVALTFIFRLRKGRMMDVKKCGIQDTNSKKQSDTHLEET

[14] = test system: Mus musculus; assay: Restoration of immune function in C57BL/6J mouse implanted with mouse MC38 cells assessed as increase in serum IFN-gamma level administered intraperitoneally once daily for 13 days by ELISA; assay type: functional, organism-based; settings: dose 5-20 mg/kg, route ip, time 13.0 day
[15] = Toxicity in C57BL/6J mouse implanted with mouse MC38 cells assessed as injury in kidney at 5 to 20 mg/kg, ip qd for 13 days by H and E staining based analysis; assay type: organism-based; settings: in vivo, 312 h, dose 5-20 mg/kg, time 13 day
[16] = Toxicity in C57BL/6J mouse implanted with mouse MC38 cells assessed as change in AST level at 40 to 160 mg/kg, IG qd for 7 days; assay type: organism-based; settings: in vivo, po, 168 h, dose 40-160 mg/kg, time 7 day
[17] = Toxicity in C57BL/6J mouse implanted with mouse MC38 cells assessed as change in excised body weight at 5 to 20 mg/kg, ip qd for 13 days; assay type: organism-based; settings: in vivo, 312 h, dose 5-20 mg/kg, time 13 day
[18] = Toxicity in C57BL/6J mouse implanted with mouse MC38 cells assessed as change in neutrophils count at 40 to 160 mg/kg, IG qd for 7 days; assay type: organism-based; settings: in vivo, po, 168 h, dose 40-160 mg/kg, time 7 day
[19] = Toxicity in C57BL/6J mouse implanted with mouse MC38 cells assessed as change in HCT count at 40 to 160 mg/kg, IG qd for 7 days; assay type: organism-based; settings: in vivo, po, 168 h, dose 40-160 mg/kg, time 7 day
[20] = Cytotoxicity against human HaCaT cells measured after 48 hrs by MTT assay; assay type: toxicity, cell-based
[21] = Toxicity in C57BL/6J mouse implanted with mouse MC38 cells assessed as body weight change at 40 to 160 mg/kg, IG qd for 7 days; assay type: organism-based; settings: in vivo, po, 168 h, dose 40-160 mg/kg, time 7 day
[22] = Toxicity in C57BL/6J mouse implanted with mouse MC38 cells assessed as change in MCH count at 40 to 160 mg/kg, IG qd for 7 days; assay type: organism-based; settings: in vivo, po, 168 h, dose 40-160 mg/kg, time 7 day
[23] = Toxicity in C57BL/6J mouse implanted with mouse MC38 cells assessed as heart weight ratio at 40 to 160 mg/kg, IG qd for 7 days; assay type: organism-based; settings: in vivo, po, 168 h, dose 40-160 mg/kg, time 7 day
[24] = AUC (0 to infinity) in Sprague-Dawley rat at 10 mg/kg, ip measured for 24 hrs by LC-MS/MS analysis; assay type: ADME, organism-based; settings: in vivo
[25] = AUC (0 to 24 hrs) in Sprague-Dawley rat at 1 mg/kg, iv measured for 24 hrs by LC-MS/MS analysis; assay type: ADME, organism-based; settings: in vivo
[26] = test system: MC-38; assay: Antitumor activity against mouse MC38 cells implanted in C57BL/6J mouse at 5 to 20 mg/kg, ip qd; assay type: functional, organism-based; settings: dose 5-20 mg/kg, time 13.0 day
[27] = test system: Mus musculus; assay: Restoration of immune function in C57BL/6J mouse implanted with mouse MC38 cells assessed as increase in serum TNF-alpha level administered intraperitoneally once daily for 13 days by ELISA; assay type: functional, organism-based; settings: dose 5-20 mg/kg, route ip, time 13.0 day
[28] = Toxicity in C57BL/6J mouse implanted with mouse MC38 cells assessed as change in lung index at 5 to 20 mg/kg, ip qd for 13 days; assay type: organism-based; settings: in vivo, 312 h, dose 5-20 mg/kg, time 13 day
[29] = Toxicity in C57BL/6J mouse implanted with mouse MC38 cells assessed as change in serum urea level at 5 to 20 mg/kg, ip qd for 13 days; assay type: organism-based; settings: in vivo, 312 h, dose 5-20 mg/kg, time 13 day
[30] = Toxicity in C57BL/6J mouse implanted with mouse MC38 cells assessed as change in serum AST level at 5 to 20 mg/kg, ip qd for 13 days; assay type: organism-based; settings: in vivo, 312 h, dose 5-20 mg/kg, time 13 day
[31] = Toxicity in C57BL/6J mouse implanted with mouse MC38 cells assessed as change in HGB count at 40 to 160 mg/kg, IG qd for 7 days; assay type: organism-based; settings: in vivo, po, 168 h, dose 40-160 mg/kg, time 7 day
[32] = Toxicity in C57BL/6J mouse implanted with mouse MC38 cells assessed as kidney weight ratio at 40 to 160 mg/kg, IG qd for 7 days; assay type: organism-based; settings: in vivo, po, 168 h, dose 40-160 mg/kg, time 7 day
[33] = Toxicity in C57BL/6J mouse implanted with mouse MC38 cells assessed as animal mortality at 5 to 20 mg/kg, ip qd for 13 days; assay type: organism-based; settings: in vivo, 312 h, dose 5-20 mg/kg, time 13 day
[34] = Cytotoxicity against mouse MC38 cells measured after 48 hrs by MTT assay; assay type: toxicity, cell-based, MC-38
[35] = Clearance in Sprague-Dawley rat at 10 mg/kg, ip measured for 24 hrs by LC-MS/MS analysis; assay type: ADME, organism-based; settings: in vivo
[36] = Toxicity in C57BL/6J mouse implanted with mouse MC38 cells assessed as change in MCV count at 40 to 160 mg/kg, IG qd for 7 days; assay type: organism-based; settings: in vivo, po, 168 h, dose 40-160 mg/kg, time 7 day
[37] = Toxicity in C57BL/6J mouse implanted with mouse MC38 cells assessed as injury in lung at 5 to 20 mg/kg, ip qd for 13 days by H and E staining based analysis; assay type: organism-based; settings: in vivo, 312 h, dose 5-20 mg/kg, time 13 day
[38] = test system: MC-38; assay: Antitumor activity against mouse MC38 cells implanted in C57BL/6J mouse administered intraperitoneally once a day for 13 days; assay type: functional, cell-based; settings: dose 5-20 mg/kg, route ip, time 13.0 day

C[C@H](N)C(=O)N1Cc2ccc(-c3cccc(-c4ccc5c(c4)OCCO5)c3Cl)cc2C1.Cl
Activity [1]: Non-toxic | Activity [2]: Non-toxic | Activity [3]: Non-toxic | Activity [4]: Non-toxic | Activity [5]: Non-toxic | Activity [6]: Non-toxic | TGI [7]: 52.8% | CL/F [8]: 401 mL/min/kg | clearance [9]: 87.7 mL/min/kg | inhibition [10]: Active | Activity [11]: Non-toxic | Activity [12]: Non-toxic | IC50 [13]: 4.8 nM | Activity [14]: Dose-dependent-effect | Activity [15]: Non-toxic | Activity [16]: Non-toxic | Activity [17]: Non-toxic | Activity [18]: Non-toxic | Activity [19]: Non-toxic | IC50 at 48 h [20]: > 100 µM | Activity [21]: Non-toxic | Activity [22]: Non-toxic | Activity [23]: Non-toxic | AUC(0-inf) [24]: 1620 ng·h/mL | AUC(0-t) at 24 h [25]: 180 ng·h/mL | Activity [26]: Time-dependent-effect | Activity [27]: Dose-dependent-effect | Activity [28]: Non-toxic | Activity [29]: Non-toxic | Activity [30]: Non-toxic | Activity [31]: Non-toxic | Activity [32]: Non-toxic | Activity [33]: Non-toxic | IC50 at 48 h [34]: 12 µM | CL/F [35]: 103 mL/min/kg | Activity [36]: Non-toxic | Activity [37]: Non-toxic | Activity [38]: Dose-dependent-effect
